Test results from US4956363A, “Treatment of cognitive and behavioral disorders associated with aging and with dementia syndromes” (U C B S.A., priority 1988, dated 1990).

Legend:
[1] = test system: learning of the avoidance reflex; test: Multiple-trial passive avoidance: learning; assay type: in vivo, rats (male Sprague-Dawley); conditions: i.p. at the dose (mg/kg) of the line in Table V, 30 min before test; criterion 180 seconds on the mat
Description: To evaluate whether a compound can promote learning, the following test is carried out.
This experiment is repeated until the animal remains on the rubber mat for at least 180 seconds in order to avoid the electric shock. The learning is expressed by the average number of trials needed to reach a period of 180 seconds remaining on the mat.
A period of remaining on the rubber mat of 180 seconds is regarded as being the maximum performance which can be realized by the animal to avoid the electric shock. Rats which remain on the mat for this period have acquired the avoidance reflex and are replaced in their original cage without receiving the electric shock.
group 1 receives an intraperitoneal injection of physiological salt solution:
group 2 receives an intraperitoneal injection of the compound to be tested:
Columns 3 and 4 show the results obtained in the test used to evaluate the learning. The figures indicate the average number of trials needed for a control animal (group 1) or an animal treated (group 2) with the compound to learn to remain on the rubber mat for 180 seconds in order to avoid the electric shock. The results were analyzed by the Student test.

[2] = test system: amnesia induced by scopolamine; test: Multiple-trial passive avoidance: mnemic retention (amnesia induced by scopolamine); conditions: compound i.p. at the dose of the line + scopolamine 0.5 mg i.p.
Description: To this end, the method of multiple-trial passive avoidance has been used. This method is well-known for evaluating the effects which a product exerts on the memory and learning (A. FINE et al., Proc. Natl. Acad. Sci. U.S.A., 82, (1985), 5227-5230).
The test is carried out on male Sprague-Dawley rats (160-200 g). which are kept in standard cages throughout the experiment.
The apparatus used is a transparent square cage with 35 cm sides and 25 cm high, fitted with a grid floor which can be electrified. An insulating rubber mat (10×17 cm) is placed on the floor in one of the corners of the cage.
Each animal is subjected to four tests at times 0, 4, 24 and 28 hours. In the first test (time 0), the animal is placed on the rubber mat and the time which it takes to decide to leave this position to explore the cage is recorded. After 20 seconds of exploration, the rat receives an electric shock (3 seconds duration) in the paws, causing a flight reaction. The rat is immediately removed from the apparatus and replaced in its original cage. In the course of the three subsequent tests (times: 4, 24 and 28 hours), the animal is replaced on the rubber mat and the time taken to leave this position is recorded. When the four paws of the animal rest on the grid, it receives an electric shock and is immediately removed from the apparatus.
At the start of the experiment, the rats are divided into 4 homogeneous groups of 15 animals. Thirty minutes before each test, each group of animals is subjected to a predetermined treatment:
Groups 1 and 2 are used in the first experiment and groups 3 and 4 are used in the second experiment.
The differences observed are analyzed statistically by the Mann-Whitney method.

male NMRI mice = test: Toxicity, Irwin's test; assay type: in vivo
Description: Progressive doses of the compound to be tested are administered intraperitoneally to groups of three mice until the lethal dose is reached (dose which causes the death of two animals out of three within 48 hours).

[3] = mice, i.p., death of two animals out of three within 48 hours

| SMILES | Lethal dose (male NMRI mice; [3]) | other results |
| --- | --- | --- |
| CCCc1nc(NCCO)nc(N2CCOCC2)n1 | 802 mg/kg | Learning, average number of trials (group 2) [1]: 1.53; Period of remaining on the mat, group 4, 4 hours [2]: 44.8 s; Period of remaining on the mat, group 4, 24 hours [2]: 61.3 s; Period of remaining on the mat, group 4, 28 hours [2]: 102.7 s |
| CCCc1nc(NN(C)C)nc(N2CCOCC2)n1 | 799 mg/kg | Learning, average number of trials (group 2) [1]: 1.53; Period of remaining on the mat, group 4, 4 hours [2]: 55.3 s; Period of remaining on the mat, group 4, 24 hours [2]: 57.7 s; Period of remaining on the mat, group 4, 28 hours [2]: 87.9 s |
| CCCc1nc(NC(C)=O)nc(N2CCOCC2)n1 [listing 1 of 2 here] | 996 mg/kg | Learning, average number of trials (group 2) [1]: 1.53; Period of remaining on the mat, group 4, 4 hours [2]: 60.4 s; Period of remaining on the mat, group 4, 24 hours [2]: 74.6 s; Period of remaining on the mat, group 4, 28 hours [2]: 102.4 s |
| CCCc1nc(NC(C)=O)nc(N2CCOCC2)n1 [listing 2 of 2 here] | 905 mg/kg | – |
| CCCc1nc(NC(=O)c2ccccc2)nc(N2CCOCC2)n1.Cl | – | Learning, average number of trials (group 2) [1]: 1.0; Period of remaining on the mat, group 4, 4 hours [2]: 70.9 s; Period of remaining on the mat, group 4, 24 hours [2]: 82.8 s; Period of remaining on the mat, group 4, 28 hours [2]: 137.6 s; Lethal dose (male NMRI mice; mouse, in vivo, ip): 1091 mg/kg |
| CCCc1nc(N2CCOCC2)nc(N(C)C(C)=O)n1 [listing 1 of 2 here] | 838 mg/kg | Learning, average number of trials (group 2) [1]: 2.07; Period of remaining on the mat, group 4, 24 hours [2]: 34.7 s; Period of remaining on the mat, group 4, 28 hours [2]: 44.5 s |
| CCCc1nc(N2CCOCC2)nc(N(C)C(C)=O)n1 [listing 2 of 2 here] | 947 mg/kg | – |
| CCCc1nc(N2CCOCC2)nc(N(C)C(=O)C(C)C)n1 | 922 mg/kg | – |
| CCCc1nc(N2CCOCC2)nc(N(C)C(=O)c2ccccc2)n1.Cl | – | Learning, average number of trials (group 2) [1]: 1.13; Period of remaining on the mat, group 4, time 0 ([2]; 0 h): 11.3 s; Period of remaining on the mat, group 4, 4 hours [2]: 88.6 s; Period of remaining on the mat, group 4, 24 hours [2]: 111.5 s; Period of remaining on the mat, group 4, 28 hours [2]: 133.5 s; Lethal dose (male NMRI mice; mouse, in vivo, ip): 1133 mg/kg |
| CCCc1nc(NCCOC(C)=O)nc(N2CCOCC2)n1 | 928 mg/kg | Learning, average number of trials (group 2) [1]: 1.3; Period of remaining on the mat, group 4, 24 hours [2]: 44.4 s; Period of remaining on the mat, group 4, 28 hours [2]: 49.9 s |
| CCCc1nc(N2CCOCC2)nc(N(CCOC(C)=O)C(C)=O)n1 | 351 mg/kg | – |
| CCCc1nc(NC(CC)CO)nc(N2CCOCC2)n1 (stereo not shown) | 886 mg/kg | Learning, average number of trials (group 2) [1]: 2.57; Period of remaining on the mat, group 4, 24 hours [2]: 22.5 s; Period of remaining on the mat, group 4, 28 hours [2]: 52.1 s |
| CCCc1nc(N(C)CCO)nc(N2CCOCC2)n1 | 844 mg/kg | Learning, average number of trials (group 2) [1]: 2.0; Period of remaining on the mat, group 4, 4 hours [2]: 67.9 s; Period of remaining on the mat, group 4, 24 hours [2]: 62.7 s; Period of remaining on the mat, group 4, 28 hours [2]: 160.3 s |
| CCCc1nc(NO)nc(N2CCOCC2)n1 [Compound 2, 2-(hydroxyamino)-4-morpholino-6-propyl-1,3,5-triazine] | 718 mg/kg | – |
| CCCc1nc(NCCCO)nc(N2CCOCC2)n1 [Compound 3] | 844 mg/kg | – |
| CCCc1nc(NCCCCO)nc(N2CCOCC2)n1 [Compound 4] | 886 mg/kg | – |
| CCCc1nc(NCC(C)O)nc(N2CCOCC2)n1 (stereo not shown) [Compound 5] | 563 mg/kg | – |
| CCCc1nc(NCC(O)CC)nc(N2CCOCC2)n1 (stereo not shown) [Compound 6] | 886 mg/kg | – |
| CCCc1nc(NC(C)(C)CO)nc(N2CCOCC2)n1 [Compound 8] | 886 mg/kg | – |
| CCCc1nc(NCCOC)nc(N2CCOCC2)n1 [Compound 10, 2-[(2-methoxyethyl)amino]-4-morpholino-6-propyl-1,3,5-triazine] | 844 mg/kg | Learning, average number of trials (group 2) [1]: 2.07; Period of remaining on the mat, group 4, 4 hours [2]: 15.7 s; Period of remaining on the mat, group 4, 24 hours [2]: 31.1 s; Period of remaining on the mat, group 4, 28 hours [2]: 34.1 s |
| CCCc1nc(NCC(O)CO)nc(N2CCOCC2)n1 (stereo not shown) [Compound 11] | 892 mg/kg | – |
| CCCc1nc(NC(CO)(CO)CO)nc(N2CCOCC2)n1 [Compound 12] | 982 mg/kg | – |

| SMILES | Lethal dose (male NMRI mice; [3]) | other results |
| --- | --- | --- |
| CCCc1nc(NC(C)(CO)CO)nc(N2CCOCC2)n1 [Compound 13] | 934 mg/kg | – |
| CCCc1nc(N2CCOCC2)nc(N(CCO)Cc2ccccc2)n1 [Compound 14] | > 1073 mg/kg | – |
| CCCc1nc(NC(CO)C(O)c2ccccc2)nc(N2CCOCC2)n1 (stereo not shown) [Compound 15] | 1121 mg/kg | – |
| CCCc1nc(NC[C@H](C)O)nc(N2CCOCC2)n1 [Compound 16, (S)-3-[(4-morpholino-6-propyl-1,3,5-triazin-2-yl)amino]-2-propanol] | 844 mg/kg | – |
| CCCc1nc(NC[C@@H](C)O)nc(N2CCOCC2)n1 [Compound 17, (R)-3-[(4-morpholino-6-propyl-1,3.5-triazin-2-yl)amino]-2-propanol] | 844 mg/kg | – |
| CCCc1nc(NCC2(O)CCCCC2)nc(N2CCOCC2)n1 [Compound 18] | 1007 mg/kg | – |
| CCCc1nc(N2CCOCC2)nc(N2CCCC2CO)n1 (stereo not shown) [Compound 19] | 1031 mg/kg | – |
| CCCc1nc(NC(=O)Cc2ccccc2)nc(N2CCOCC2)n1 [Compound 23] | > 1024 mg/kg | – |
| CCCc1nc(NC(=O)C(C)C)nc(N2CCOCC2)n1 [Compound 24] | 880 mg/kg | – |
| CCCc1nc(NC(=O)Oc2ccccc2)nc(N2CCOCC2)n1 [Compound 28, phenyl (4-morpholino-6-propyl-1,3,5-triazin-2-yl)carbamate] | > 1030 mg/kg | – |
| CCCc1nc(NC(=O)c2ccc(Cl)cc2)nc(N2CCOCC2)n1 [Compound 29] | 398 mg/kg | – |
| CCCc1nc(N2CCOCC2)nc(N(C)C(=O)c2ccc(Cl)cc2)n1 [Compound 30] | 1125 mg/kg | – |
| CCCc1nc(NC(=O)c2ccc(OC)cc2)nc(N2CCOCC2)n1 [Compound 31] | 511 mg/kg | – |
| CCCc1nc(N2CCOCC2)nc(N(C)C(=O)c2ccc(OC)cc2)n1 [Compound 32] | 1222 mg/kg | – |
| CCCc1nc(NC(=O)c2ccc(C)cc2)nc(N2CCOCC2)n1 [Compound 33] | 1132 mg/kg | – |
| CCCc1nc(N2CCOCC2)nc(N(C)C(=O)c2ccc(C)cc2)n1 [Compound 34] | 1174 mg/kg | – |
| CCCc1nc(N2CCOCC2)nc(N(C)C(=O)c2ccc(OC)c(OC)c2)n1 [Compound 35] | 401 mg/kg | – |
| CCCc1nc(NC(=O)c2ccc(C)c(C)c2)nc(N2CCOCC2)n1 [Compound 36] | 1174 mg/kg | – |
| CCCc1nc(NCCOC(=O)C(C)C)nc(N2CCOCC2)n1 [Compound 38] | > 1012 mg/kg | – |
| CCCc1nc(NCCOC(=O)c2ccccc2)nc(N2CCOCC2)n1 [Compound 39] | > 1114 mg/kg | – |
| CCCc1nc(NCCOC(=O)Cc2ccccc2)nc(N2CCOCC2)n1 [Compound 40] | 1157 mg/kg | – |
| CCCc1nc(NCCOC(N)=O)nc(N2CCOCC2)n1 [Compound 42, 2-[[2-[(Aminocarbonyl)oxy]ethyl]amino]-4-morpholino-6-propyl-1,3,5-triazine] | > 931 mg/kg | – |
